pKi: −log10 of the molar value. Where a name gives a salt, the structure may show the parent alone. Read-outs that look alike come from different tables or passages of the source.
Experiments:
human MCH-1 receptor = human MCH-1 receptor (Homo sapiens (Human), UniProt Q99705); test: Binding Assay for Human Melanin-Concentrating Hormone (MCH-1) Receptor (radioligand displacement, CHO-K1 membranes); details: for pKi / Ki: membranes from CHO-K1 cells expressing human MCH1 receptor, [3H]-labeled radioligand, Ki from IC50 by Cheng Prusoff; for pKi: read-out: MCH-1 Ki; for Ki: MCH-1 Ki (nM)
Method: Evaluation of the affinity of compounds for the human MCH-1 receptor was accomplished using 4-(3,4,5-tritritiumbenzyloxy)-1-(1-(2-(pyrrolidin-1-yl)ethyl)-1H-indazol-5-yl)pyridin-2(1H)-one and membranes prepared from stable CHO-K1 cells expressing the human MCH1 receptor obtained from Euroscreen (Batch 1138). Cell membrane homogenates (8.92 μg protein) were incubated for 60 min at 25° C. with […] of the [^3H]-labeled compound in the absence or presence of the test compound in 50 mM Tris-HCl buffer, pH 7.4. Nonspecific binding was determined in the presence of 50 μM 1-(5-(4-cyanophenyl)bicyclo[3.1.0]hexan-2-yl)-3-(4-fluoro-3-(trifluoromethyl)phenyl)-1-(3-(4-methylpiperazin-1-yl)propyl)urea. Following incubation, the samples were filtered rapidly under vacuum through Skatron 11731 filters, pre-soaked in 0.5% polyethylenimine, and washed with ice-cold 50 mM Tris-HCl buffer, pH 7.4, (wash setting 9,9,0) using a Skatron cell harvester. The filters were counted for radioactivity in a liquid scintillation counter (Tri-Carb 2100TR, Packard) using a scintillation cocktail (Ultima Gold MV, Perkin Elmer).
The results are expressed as a percent inhibition of the control radioligand specific binding. The IC50 value (concentration causing a half-maximal inhibition of control specific binding) and Hill coefficient (nH) were determined by non-linear regression analysis of the competition curve using Hill equation curve fitting. The inhibition constant (Ki) was calculated from the Cheng Prusoff equation: (Ki=IC50/(1+(L/KD)), where L=concentration of radioligand in the assay, and KD=affinity of the radioligand for the receptor.

human MCH-1 receptor, sequence (Q99705 whole entry): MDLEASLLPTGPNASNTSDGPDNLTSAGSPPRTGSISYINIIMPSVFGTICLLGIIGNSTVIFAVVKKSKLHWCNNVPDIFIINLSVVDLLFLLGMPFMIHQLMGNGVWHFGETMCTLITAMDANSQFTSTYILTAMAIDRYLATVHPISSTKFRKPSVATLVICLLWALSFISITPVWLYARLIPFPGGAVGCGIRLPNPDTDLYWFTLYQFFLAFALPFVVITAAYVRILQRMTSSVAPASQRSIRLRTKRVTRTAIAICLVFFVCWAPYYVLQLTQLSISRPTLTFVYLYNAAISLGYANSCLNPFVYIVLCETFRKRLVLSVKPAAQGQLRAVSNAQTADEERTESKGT

Row | Compound | pKi (human MCH-1 receptor) | melting point | Ki (human MCH-1 receptor) | inhibition at 1 µM (human MCH-1 receptor; @ 1 uM test compound, read-out: MCH-1 percent inhibition of control radioligand specific binding)
1 | Cc1ccc(COc2cnn(-c3ccc4c5c(n(C)c4c3)CC3CCCC5N3)c(=O)c2)cn1.Cl (stereo not shown) [Example 18, 2-(5-Methyl-6,7,8,9,10,11-hexahydro-7,11-imino-5H-cyclooct[b]indol-3-yl)-5-((6-methylpyridin-3-yl)methoxy)pyridazin-3(2H)-one hydrochloride] | 7.14 | 190 to 200 °C | – | –
2 | Cl.Cn1c2c(c3ccc(-n4ccc(OCc5ccc(F)cn5)cc4=O)nc31)C1CCCC(C2)N1 (stereo not shown) [Example 40, 4-((5-Fluoropyridin-2-yl)methoxy)-1-(11-methyl-5,6,7,8,9,10-hexahydro-5,9-imino-11H-cycloocta[4,5]pyrrolo[2,3-b]pyridin-2-yl)pyridin-2(1H)-one hydrochloride] | 7.31 | 170 to 180 °C | – | –
3 | Cl.O=c1cc(OCc2ccccc2)ccn1-c1ccc2c3c([nH]c2c1)CC1CCC3N1 (single isomer, unassigned; enantiomer a) [Example 21, (+)-4-(Benzyloxy)-1-(5,6,7,8,9,10-hexahydro-7,10-iminocyclohept[b]indol-3-yl)pyridin-2(1H)-one hydrochloride (Enantiomer A)] | – | 211 to 212 °C | 39 nM | –
4 | CC(=O)N1C2CCC1c1c([nH]c3cc(-n4ccc(OCc5ccccc5)cc4=O)ccc13)C2 (single isomer, unassigned; enantiomer a) (as salt: hydrochloride) [Example 30, 1-(11-Acetyl-5,6,7,8,9,10-hexahydro-7,10-iminocyclohept[b]indol-3-yl)-4-(benzyloxy)pyridin-2(1H)-one hydrochloride (Enantiomer A)] | – | 140 to 170 °C | – | –
5 | CN1C2CCC1c1c(n(C)c3cc(-n4ccc(OCc5ccccc5)cc4=O)ccc13)C2.Cl (stereo not shown) [Example 26, 4-(Benzyloxy)-1-(5,11-dimethyl-5,6,7,8,9,10-hexahydro-7,10-iminocyclohept[b]indol-3-yl)pyridin-2(1H)-one hydrochloride] | 8.01 | 121 to 128 °C | – | –
6 | Cl.Cn1c2c(c3ccc(-n4ccc(OCc5ccc(C(F)(F)F)nc5)cc4=O)cc31)C1CCCC(C2)N1 (stereo not shown) [Example 19, 1-(5-Methyl-6,7,8,9,10,11-hexahydro-7,11-imino-5H-cyclooct[b]indol-3-yl)-4-((6-(trifluoromethyl)pyridin-3-yl)methoxy)pyridin-2 (1H)-one hydrochloride] | 7.89 | 240 to 250 °C | – | –
7 | Cl.Cn1c2c(c3ccc(-n4ccc(OCc5ccccn5)cc4=O)cc31)C1CCC(C2)N1 (stereo not shown) [Example 23, 1-(5-Methyl-6,7,8,9,10-hexahydro-7,10-iminocyclohept[b]indol-3-yl)-4-((pyridin-2-yl)methoxy)pyridin-2(1H)-one hydrochloride] | 7.77 | 175 to 195 °C | – | –
8 | CC(=O)N1C2CCC1c1c(n(C)c3cc(-n4ccc(OCc5ccccc5)cc4=O)ccc13)C2 (stereo not shown) [Example 27, 1-(11-Acetyl-5-methyl-5,6,7,8,9,10-hexahydro-7,10-iminocyclohept[b]indol-3-yl)-4-(benzyloxy)pyridin-2(1H)-one] | 6.88 | 91 to 96 °C | – | –
9 | Cn1c2c(c3ccc(-n4ccc(-c5ccc(C(F)(F)F)nc5)cc4=O)cc31)C1CCC(C2)N1 (stereo not shown) (as salt: hydrochloride) [Example 5, 1-(5-Methyl-5,6,7,8,9,10-hexahydro-7,10-iminocyclohept[b]indol-3-yl)-4-(6-(trifluoromethyl)pyridin-3-yl)pyridin-2(1H)-one dihydrochloride] | – | 228 to 233 °C | – | –
10 | Cn1c2c(c3ccc(-n4ccc(OCc5ccc(F)cn5)cc4=O)cc31)C1CCC(C2)N1 (stereo not shown) (as salt: hydrochloride) [Example 6, 4-((5-Fluoropyridin-2-yl)methoxy)-1-(5-methyl-5,6,7,8,9,10-hexahydro-7,10-iminocyclohept[b]indol-3-yl)pyridin-2(1H)-one dihydrochloride] | – | 180 to 190 °C | – | –
11 | Cl.O=c1cc(OCc2ccccn2)ccn1-c1ccc2c3c([nH]c2c1)CC1CCC3N1 (stereo not shown) [Example 22, 1-(5,6,7,8,9,10-Hexahydro-7,10-iminocyclohept[b]indol-3-yl)-4-((pyridin-2-yl)methoxy)pyridin-2(1H)-one hydrochloride] | 7.60 | 220 to 230 °C | – | –
12 | Cl.Cn1c2c(c3ccc(-n4ccc(OCc5ccccc5)cc4=O)nc31)C1CCCC(C2)N1 (stereo not shown) [Example 41, 4-(Benzyloxy)-1-(11-methyl-5,6,7,8,9,10-hexahydro-5,9-imino-11H-cycloocta[4,5]pyrrolo[2,3-b]pyridin-2-yl)pyridin-2(1H)-one hydrochloride] | 7.52 | 191 to 206 °C | – | –
13 | Cl.O=c1cc(-c2ccc(C(F)(F)F)nc2)ccn1-c1ccc2c3c([nH]c2c1)CC1CCC3N1 (stereo not shown) [Example 10, 1-(5,6,7,8,9,10-Hexahydro-7,10-iminocyclohept[b]indol-3-yl)-4-(6-(trifluoromethyl)pyridin-3-yl)pyridin-2(1H)-one hydrochloride] | 7.64 | 215 to 235 °C (dec.) | – | –
14 | Cl.Cn1c2c(c3ccc(-n4ccc(-c5ccc(C(F)(F)F)nn5)cc4=O)cc31)C1CCC(C2)N1 (stereo not shown) [Example 3, 1-(5-Methyl-5,6,7,8,9,10-hexahydro-7,10-iminocyclohept[b]indol-3-yl)-4-(6-(trifluoromethyl)pyridazin-3-yl)pyridin-2(1H)-one hydrochloride] | 7.61 | 235 to 245 °C | – | –
15 | O=c1cc(OCc2ccc(F)cn2)ccn1-c1ccc2c3c([nH]c2c1)CC1CCC3N1 (stereo not shown) (as salt: hydrochloride) [Example 9, 4-((5-Fluoropyridin-2-yl)methoxy)-1-(5,6,7,8,9,10-hexahydro-7,10-iminocyclohept[b]indol-3-yl)pyridin-2(1H)-one dihydrochloride] | – | 205 to 211 °C (dec.) | – | –
16 | Cn1c2c(c3ccc(-n4ccc(-c5ccc(C(F)(F)F)nc5)cc4=O)cc31)C1CCC(C2)N1 (single isomer, unassigned; enantiomer a) [Example 37, 1-(5-Methyl-5,6,7,8,9,10-hexahydro-7,10-iminocyclohept[b]indol-3-yl)-4-(6-(trifluoromethyl)pyridin-3-yl)pyridin-2(1H)-one hydrochloride (Enantiomer A)] | – | – | – | 72%
17 | Cn1c2c(c3ccc(-n4ccc(OCc5ccc(F)cn5)cc4=O)cc31)C1CCC(C2)N1 (single isomer, unassigned; enantiomer b) [Example 24, (−)-4-((5-Fluoropyridin-2-yl)methoxy)-1-(5-methyl-5,6,7,8,9,10-hexahydro-7,10-iminocyclohept[b]indol-3-yl)pyridin-2(1H)-one hydrochloride (Enantiomer B)] | – | – | 7.4 nM | –
18 | Cn1c2c(c3ccc(-n4ccc(-c5ccc(C(F)(F)F)cn5)cc4=O)cc31)C1CCC(C2)N1 (stereo not shown) [Example 4, 1-(5-Methyl-5,6,7,8,9,10-hexahydro-7,10-iminocyclohept[b]indol-3-yl)-4-(5-(trifluoromethyl)pyridin-2-yl)pyridin-2(1H)-one dihydrochloride] | 7.79 | – | – | –
19 | Cn1c2c(c3ccc(-n4ccc(-c5ccc(C(F)(F)F)cn5)cc4=O)cc31)C1CCC(C2)N1 (single isomer, unassigned; enantiomer b) [Example 16, 1-(5-Methyl-5,6,7,8,9,10-hexahydro-7,10-iminocyclohept[b]indol-3-yl)-4-(5-(trifluoromethyl)pyridin-2-yl)pyridin-2(1H)-one hydrochloride (Enantiomer B)] | 7.85 | – | – | –
20 | Cn1c2c(c3ccc(-n4ccc(OCc5ccccc5)cc4=O)cc31)C1CCC(C2)N1 (single isomer, unassigned; enantiomer a) [Example 14, 4-(Benzyloxy)-1-(5-methyl-5,6,7,8,9,10-hexahydro-7,10-iminocyclohept[b]indol-3-yl)pyridin-2(1H)-one hydrochloride (Enantiomer A)] | – | – | 15.8 nM | –
21 | CC(C)N1C2CCC1c1c(n(C)c3cc(-n4ccc(OCc5ccccc5)cc4=O)ccc13)C2 (stereo not shown) [Example 28, 4-(Benzyloxy)-1-(11-isopropyl-5-methyl-5,6,7,8,9,10-hexahydro-7,10-iminocyclohept[b]indol-3-yl)pyridin-2(1H)-one hydrochloride] | 7.92 | – | – | –
22 | Cn1c2c(c3ccc(-n4ccc(OCc5ccc(F)cn5)cc4=O)nc31)C1CCC(C2)N1 (stereo not shown) [Example 43, 4-((5-Fluoropyridin-2-yl)methoxy)-1-(10-methyl-5,6,7,8,9,10-hexahydro-5,8-iminocyclohepta[4,5]pyrrolo[2,3-b]pyridin-2-yl)pyridin-2(1H)-one hydrochloride] | 7.42 | – | – | –
23 | Cn1c2c(c3ccc(-n4ccc(OCc5ccc(F)cn5)cc4=O)cc31)C1CCC(C2)N1 (single isomer, unassigned; enantiomer a) [Example 25, (+)-4-((5-Fluoropyridin-2-yl)methoxy)-1-(5-methyl-5,6,7,8,9,10-hexahydro-7,10-iminocyclohept[b]indol-3-yl)pyridin-2(1H)-one hydrochloride (Enantiomer A)] | – | – | 19 nM | –

Reference: US8629158B2, “Azabicycloalkane-indole and azabicycloalkane-pyrrolo-pyridine MCH-1 antagonists, methods of making, and use thereof” (Albany Molecular Research, Inc., priority 2009, dated 2014)
